Test [1] concerns the target T1, cyclooxygenase (Rattus norvegicus, UniProt Q63921).
T1 construct: endogenous in cells; host or cells: RBL-1 (rat basophilic leukemia cells, from the American Type Culture Collection)
T1 sequence (Q63921 27-602): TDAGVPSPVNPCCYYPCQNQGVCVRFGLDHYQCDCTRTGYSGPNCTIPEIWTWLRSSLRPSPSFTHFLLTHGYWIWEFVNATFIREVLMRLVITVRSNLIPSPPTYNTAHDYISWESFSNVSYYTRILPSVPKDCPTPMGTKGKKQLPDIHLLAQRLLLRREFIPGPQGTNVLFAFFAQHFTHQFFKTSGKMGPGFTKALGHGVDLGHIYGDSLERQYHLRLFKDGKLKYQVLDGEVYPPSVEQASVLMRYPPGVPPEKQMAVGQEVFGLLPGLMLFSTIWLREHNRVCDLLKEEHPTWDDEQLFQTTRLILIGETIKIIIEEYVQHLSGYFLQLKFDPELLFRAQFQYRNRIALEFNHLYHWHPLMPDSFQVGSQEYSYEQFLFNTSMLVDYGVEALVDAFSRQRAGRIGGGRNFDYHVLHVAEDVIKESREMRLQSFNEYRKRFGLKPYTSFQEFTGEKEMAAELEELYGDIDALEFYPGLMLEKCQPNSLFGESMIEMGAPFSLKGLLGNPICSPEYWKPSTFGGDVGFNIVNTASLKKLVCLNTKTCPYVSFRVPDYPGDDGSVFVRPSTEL
Put plainly: ARBC whole cell cyclooxygenase assay (inhibition of PGF2α formation in RBL-1 cells). In kind it is cell-based. The following applies: for inhibition at 10 µM: A23187 stimulated, read-out: ARBC, inhibition of PGF2; for pIC50: A23187 (5 μM) stimulated, PGF2α formation, read-out: ARBC, inhibition of PGF2, IC50. The procedure: (§1) ARBL/ARBC WHOLE CELL 5-LIPOXYGENASE AND CYCLOOXYGENASE ASSAYS
(§2) The rat basophilic leukemia cell line (RBL-1) was obtained from the American Type Culture Collection (Rockville, Md.).
(§3) Radioimmunoassay (RIA) kits of LTB4 and PGF2α were obtained from Amersham (Arlington Heights, Ill.) and Seragen (Boston, Mass.), respectively.
(§4) RBL-1 cells are grown in suspension culture in Eagle's minimum essential medium supplemented with 12% fetal bovine serum at 37° C. in an incubator supplied with air 5% carbon dioxide. Cells are harvested by centrifugation. They are washed with cold phosphate buffered saline, pH 7.4 (PBS; NaCl, 7.1 g; Na2 HPO4, 1.15 g; KH2 PO4, 0.2 g; and KCl, 0.2 g/L). Cells are finally suspended in PBS containing 1.0 mM calcium at a density of 2×10^6 cells/mL. Cells are incubated […] test agent (in DMSO) (1% DMSO is without effect on arachidonic acid metabolism) for 10 minutes at room temperature. Calcium ionophore A23187 (5 μM) is added and cells are incubated for 7 minutes at 37° C. The reaction is stopped by chilling the tubes on ice for 10 minutes. Cells are separated by centrifugation and the supernatant is stored at -20° C. Aliquots (100 μL) are analyzed for LTB4 and PGF2α using radioimmunoassay kits as provided by the supplier.
(§5) Table 1 contains biochemical data for compounds of formula I obtained from this whole cell assay as amount of inhibition at 10 μM or IC50 s which are calculated as the concentration of a test compound in micromoles (μM) causing 50% inhibition of LTB4 or PGF2α formation.

In test [2] the target is T2, 5-lipoxygenase (Rattus norvegicus, UniProt P12527).
T2 construct: endogenous in cells; host or cells: RBL-1 (rat basophilic leukemia cells, from the American Type Culture Collection)
T2 sequence (P12527 1-673): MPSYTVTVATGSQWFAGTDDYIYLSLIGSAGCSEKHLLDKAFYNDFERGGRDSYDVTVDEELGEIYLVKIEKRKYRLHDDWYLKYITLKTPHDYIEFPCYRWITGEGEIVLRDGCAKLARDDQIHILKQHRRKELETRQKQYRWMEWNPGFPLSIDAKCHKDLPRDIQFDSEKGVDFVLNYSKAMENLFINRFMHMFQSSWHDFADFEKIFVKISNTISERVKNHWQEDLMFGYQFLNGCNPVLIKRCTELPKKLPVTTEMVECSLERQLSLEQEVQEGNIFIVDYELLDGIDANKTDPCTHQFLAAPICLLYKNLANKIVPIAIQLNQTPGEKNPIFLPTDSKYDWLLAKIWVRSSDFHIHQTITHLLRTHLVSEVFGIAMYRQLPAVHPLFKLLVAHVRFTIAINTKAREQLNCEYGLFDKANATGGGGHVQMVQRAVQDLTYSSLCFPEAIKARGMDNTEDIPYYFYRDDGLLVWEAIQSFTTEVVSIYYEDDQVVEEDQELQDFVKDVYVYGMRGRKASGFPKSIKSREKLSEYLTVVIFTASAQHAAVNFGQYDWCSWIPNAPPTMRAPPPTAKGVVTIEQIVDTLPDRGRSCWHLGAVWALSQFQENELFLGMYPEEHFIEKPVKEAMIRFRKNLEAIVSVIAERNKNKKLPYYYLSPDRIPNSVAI
Put plainly: ARBL whole cell 5-lipoxygenase assay (inhibition of LTB4 formation in RBL-1 cells). The conditions noted are these: for inhibition at 10 µM: A23187 stimulated; for pIC50: A23187 (5 μM) stimulated, LTB4 formation. In kind it is cell-based. The procedure: as §1, §2, §3, §4, §5

pIC50: −log10 of the molar value. Read-outs that look alike come from different tables or passages of the source. Some results are limits rather than exact numbers.

Usually inhibition stands for the drop in the measured response relative to a control, in per cent. Take `COc1ccc2[nH]c(C)c(/C=C3\SC(NC#N)=NC3=O)c2c1` [Example 2, (Z)-[4,5-Dihydro-5-[(5-methoxy-2-methyl-1H-indol-3-yl)methylene]-4-oxo-2-thiazolyl]-cyanamide]: the inhibition at 10 µM in test [1] (class symbol, 10 μM) was under 40%; in test [2] (class symbol, 10 μM), under 40%.

Broadly, the pIC50 is −log10 of the IC50, conventionally taken in molar units. On to `COc1ccc2[nH]c(C)c(/C=C3\SC(SC)=NC3=O)c2c1` [Example 1, (Z) -5-[(5 -Methoxy-2-methyl-1H -indol-3-yl)methylene]-2-(methylthio)-4(5H)-thiazolone], for which the pIC50 was 6.54 in test [1] and 5.08 in test [2].

Regarding `CSC1=NC(=O)/C(=C/c2c(C)[nH]c3ccccc23)S1` [Example 3, (Z) -5-[(2-Methyl-1H-indol-3-yl)methylene]-2-(methylthio)-4(5H)-thiazolone], the pIC50 in test [1] was 6.85; in test [2], 5.35.

Turning to `COc1ccc2c(c1)c(/C=C1\SC(N)=NC1=O)c(C)n2C(=O)c1ccc(Cl)cc1` [Example 5, (Z)-5-[[1-(4-Chlorobenzoyl)-5-methoxy-2-methyl-1H-indol-3-yl]methylene]-2-imino-4-thiazolidinone], the inhibition at 10 µM in test [1] (class symbol, 10 μM) is under 40%; in test [2] (inhibition at 10 μM), 48%.

Take `COc1ccc2c(c1)c(/C=C1\SC(=S)N(CC(=O)O)C1=O)c(C)n2C(=O)c1ccc(Cl)cc1` [Example 4, (Z)-5-[[1-(4-Chlorobenzoyl)-5-methoxy-2-methyl-1H-indol-3-yl]methylene]-4-oxo-2-thioxo-3-thiazolidine acetic acid]: the inhibition at 10 µM in test [1] (inhibition at 10 μM) is 60%; in test [2] (inhibition at 10 μM) it was 90%.
